Data taken from ChEMBL document CHEMBL4811239, “Insertion of metal carbenes into the anilinic N-H bond of unprotected aminobenzenesulfonamides delivers low nanomolar inhibitors of human carbonic anhydrase IX and XII isoforms” (Eur J Med Chem, 2021).
pIC50, pKi: −log10 of the molar value. Active and inactive are the calls of the source. No cut-off for these calls is given here.

How the values were obtained:
Carbonic anhydrase 12 = Carbonic anhydrase 12 (Homo sapiens, UniProt O43570); test: Inhibition of recombinant human CA12 pre-incubated for 15 mins prior to testing by phenol red-based stopped-flow CO2 hydration assay
Chain of Carbonic anhydrase 12 (O43570 whole entry): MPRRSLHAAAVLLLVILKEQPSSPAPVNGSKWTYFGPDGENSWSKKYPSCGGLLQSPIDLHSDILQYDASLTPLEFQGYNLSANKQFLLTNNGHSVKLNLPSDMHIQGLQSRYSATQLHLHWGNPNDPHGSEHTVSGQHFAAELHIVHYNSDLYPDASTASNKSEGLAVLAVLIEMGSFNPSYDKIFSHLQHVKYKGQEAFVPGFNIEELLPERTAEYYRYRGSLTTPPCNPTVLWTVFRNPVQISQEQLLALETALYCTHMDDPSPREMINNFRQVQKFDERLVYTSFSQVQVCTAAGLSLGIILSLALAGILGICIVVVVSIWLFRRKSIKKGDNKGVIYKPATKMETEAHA

MCF7 [1] = test: Antiproliferative activity against human MCF-7 cells assessed as cell survival at 100 uM after 72 hrs under normoxic condition by MTT assay; assay type: functional; settings: for viability at 100 µM: read-out: Activity
MCF7 [2] = test: Antiproliferative activity against human MCF7 cells assessed as cell survival at 100 uM after 72 hrs under hypoxic condition by MTT assay; assay type: functional; settings: for viability at 100 µM: read-out: Activity
Carbonic anhydrase 9 = Carbonic anhydrase 9 (Homo sapiens, UniProt Q16790); test: Inhibition of recombinant human CA9 pre-incubated for 15 mins prior to testing by phenol red-based stopped-flow CO2 hydration assay
MDA-MB-231 [3] = test: Antiproliferative activity against human MDA-MB-231 cells assessed as reduction in cell viability at 100 uM after 72 hrs under normoxic condition by MTT assay; assay type: functional
Carbonic anhydrase 1 = Carbonic anhydrase 1 (Homo sapiens, UniProt P00915); test: Inhibition of recombinant human CA1 pre-incubated for 15 mins prior to testing by phenol red-based stopped-flow CO2 hydration assay
Chain of Carbonic anhydrase 1 (P00915 whole entry): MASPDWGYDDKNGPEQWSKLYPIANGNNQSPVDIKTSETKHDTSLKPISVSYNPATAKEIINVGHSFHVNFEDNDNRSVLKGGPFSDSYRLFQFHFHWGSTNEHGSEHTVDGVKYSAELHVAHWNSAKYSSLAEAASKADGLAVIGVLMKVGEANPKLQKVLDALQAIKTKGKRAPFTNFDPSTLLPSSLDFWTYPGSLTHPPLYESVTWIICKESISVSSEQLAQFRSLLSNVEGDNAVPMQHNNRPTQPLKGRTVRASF

MDA-MB-231 [4] = test: Antiproliferative activity against human MDA-MB-231 cells assessed as reduction in cell viability at 100 uM after 72 hrs under hypoxic condition by MTT assay; assay type: functional
MCF7 [5] = test: Antiproliferative activity against human MCF7 cells assessed as reduction in cell viability after 72 hrs under hypoxic condition by MTT assay; settings: MCF7, 72 h
MDA-MB-231 [6] = test: Antiproliferative activity against human MDA-MB-231 cells assessed as reduction in cell viability after 72 hrs under normoxic condition by MTT assay; settings: MDA-MB-231, 72 h
MCF7 [7] = test: Antiproliferative activity against human MCF7 cells assessed as reduction in cell viability after 72 hrs under normoxic condition by MTT assay; settings: MCF7, 72 h
[8] = Antiproliferative activity against human WI26VA4 cells assessed as reduction in cell viability after 72 hrs under normoxic condition by MTT assay; settings: WI26VA4, 72 h
[9] = Antiproliferative activity against human WI26VA4 cells assessed as reduction in cell viability after 72 hrs under hypoxic condition by MTT assay; settings: WI26VA4, 72 h
MDA-MB-231 [10] = test: Antiproliferative activity against human MDA-MB-231 cells assessed as reduction in cell viability after 72 hrs under hypoxic condition by MTT assay; settings: MDA-MB-231, 72 h

| Compound | pKi (Carbonic anhydrase 12) | Activity (MCF7 [1]) | Activity (MCF7 [2]) | pKi (Carbonic anhydrase 9) | Activity (MDA-MB-231 [3]) | pKi (Carbonic anhydrase 1) | Activity (MDA-MB-231 [4]) | pIC50 (MCF7 [5]) | viability at 100 µM (MCF7 [1]) [%] | pIC50 (MDA-MB-231 [6]) | viability at 100 µM (MCF7 [2]) [%] | pIC50 (MCF7 [7]) | pIC50 [8] | pIC50 [9] | pIC50 (MDA-MB-231 [10]) |
| --- | --- | --- | --- | --- | --- | --- | --- | --- | --- | --- | --- | --- | --- | --- | --- |
| CCOC(=O)C(Nc1ccc(S(N)(=O)=O)cc1)c1ccc(Cl)cc1 (configuration not stated) | 7.20 | inactive | inactive | 7.27 | 30% | 6.87 | 30% | – | – | – | – | – | – | – | – |
| COc1ccc(C(=O)CNc2cccc(S(N)(=O)=O)c2)cc1 | 6.72 | inactive | inactive | 7.27 | inactive | 6.04 | inactive | – | – | – | – | – | – | – | – |
| COCC(=O)C(Nc1ccc(S(N)(=O)=O)cc1)C(=O)OC (configuration not stated) | 7.61 | inactive | inactive | 7.19 | inactive | 7.16 | inactive | – | – | – | – | – | – | – | – |
| CCOC(=O)C(C(=O)Nc1ccc(S(N)(=O)=O)cc1)c1ccccc1 (configuration not stated) | 7.38 | inactive | inactive | 7.21 | inactive | 6.51 | inactive | – | – | – | – | – | – | – | – |
| COC(=O)C(Nc1ccc(S(N)(=O)=O)cc1)C(=O)c1ccccc1OC (configuration not stated) | 7.58 | – | – | 7.59 | – | 6.08 | – | – | – | – | – | – | – | – | – |
| CC(C)C(C(=O)Nc1cccc(S(N)(=O)=O)c1)C(=O)c1ccccc1 (configuration not stated) | 7.22 | inactive | inactive | 7.15 | inactive | 5.87 | inactive | – | – | – | – | – | – | – | – |
| NS(=O)(=O)c1cccc(NCC(=O)N2CCN(Cc3ccc(Cl)cc3)CC2)c1 | 7.44 | inactive | inactive | 6.94 | inactive | 5.40 | inactive | – | – | – | – | – | – | – | – |
| CCOC(=O)C(Nc1ccc(S(N)(=O)=O)cc1)C(=O)c1ccccc1 (configuration not stated) | 7.66 | inactive | inactive | 7.74 | inactive | 6.61 | inactive | – | – | – | – | – | – | – | – |
| COC(=O)C(Nc1ccc(S(N)(=O)=O)cc1)C(=O)OC | – | inactive | inactive | 7.24 | inactive | 6.78 | inactive | – | – | – | – | – | – | – | – |
| NS(=O)(=O)c1ccc(NCC(=O)N2CCN(Cc3ccc(Cl)cc3)CC2)cc1 | 7.95 | inactive | inactive | 7.67 | inactive | 6.83 | inactive | – | – | – | – | – | – | – | – |
| CCOC(=O)C(Nc1cccc(S(N)(=O)=O)c1)C(=O)c1ccccc1 (configuration not stated) | 7.08 | inactive | inactive | 7.23 | 30% | 5.81 | 30% | – | – | – | – | – | – | – | – |
| COc1ccccc1CC1=C(Nc2ccc(S(N)(=O)=O)cc2)C(=O)N(c2ccccc2)C1=O | 7.06 | Active | Active | 7.17 | – | < 5.00 | – | – | – | – | – | – | – | – | – |
| CCN(CC)C(=O)CNc1cccc(S(N)(=O)=O)c1 | 7.08 | inactive | inactive | 7.34 | inactive | 7.15 | inactive | – | – | – | – | – | – | – | – |
| CC(C(=O)Nc1ccc(S(N)(=O)=O)cc1)C(=O)c1ccc(Cl)cc1 (configuration not stated) | 7.65 | Active | Active | 7.46 | 30% | 6.67 | 30% | – | – | – | – | – | – | – | – |
| COc1ccc(C(=O)CNc2ccc(S(N)(=O)=O)cc2)cc1 | 7.09 | Active | Active | 8.00 | inactive | 6.90 | inactive | – | – | – | – | – | – | – | – |
| NS(=O)(=O)c1ccc(NC2CCN(c3nccs3)C2=O)cc1 (configuration not stated) | 7.73 | inactive | inactive | 7.43 | inactive | 6.86 | inactive | – | – | – | – | – | – | – | – |
| CCN(CC)C(=O)CNc1ccc(S(N)(=O)=O)cc1 | 7.48 | inactive | inactive | 7.05 | inactive | 6.61 | inactive | – | – | – | – | – | – | – | – |

| Compound | pKi (Carbonic anhydrase 12) | Activity (MCF7 [1]) | Activity (MCF7 [2]) | pKi (Carbonic anhydrase 9) | Activity (MDA-MB-231 [3]) | pKi (Carbonic anhydrase 1) | Activity (MDA-MB-231 [4]) | pIC50 (MCF7 [5]) | viability at 100 µM (MCF7 [1]) [%] | pIC50 (MDA-MB-231 [6]) | viability at 100 µM (MCF7 [2]) [%] | pIC50 (MCF7 [7]) | pIC50 [8] | pIC50 [9] | pIC50 (MDA-MB-231 [10]) |
| --- | --- | --- | --- | --- | --- | --- | --- | --- | --- | --- | --- | --- | --- | --- | --- |
| NS(=O)(=O)c1ccc(NC2CCN(c3ccccc3)C2=O)cc1 (configuration not stated) | 7.60 | inactive | inactive | 8.02 | inactive | 7.21 | inactive | – | – | – | – | – | – | – | – |
| CCOC(=O)C(Nc1ccc(S(N)(=O)=O)cc1)C(=O)OCC | 7.24 | inactive | inactive | 7.28 | inactive | 6.87 | inactive | – | – | – | – | – | – | – | – |
| CCOC(=O)C(C(=O)Nc1cccc(S(N)(=O)=O)c1)C(C)C (configuration not stated) | 6.95 | inactive | inactive | 7.15 | inactive | 6.46 | inactive | – | – | – | – | – | – | – | – |
| NS(=O)(=O)c1ccc(NC2CCCCCC2=O)cc1 (configuration not stated) | 7.31 | inactive | inactive | 8.19 | 30% | 6.69 | 30% | – | – | – | – | – | – | – | – |
| Cc1ccc(N2C(=O)C(Cc3ccc(Cl)cc3)=C(Nc3cccc(S(N)(=O)=O)c3)C2=O)cc1 | 5.97 | – | – | 6.20 | – | < 5.00 | – | 4.82 | 10 | 4.43 | 10 | 4.83 | 4.66 | 4.45 | 4.43 |
| CC(C)(C)C(=O)CNc1cccc(S(N)(=O)=O)c1 | 7.62 | inactive | inactive | 7.38 | inactive | 6.46 | inactive | – | – | – | – | – | – | – | – |
| CCOC(=O)C(Nc1ccc(S(N)(=O)=O)cc1)c1ccc(OC)c(OC)c1 (configuration not stated) | 7.45 | inactive | inactive | 8.19 | inactive | 5.23 | inactive | – | – | – | – | – | – | – | – |
| COC(=O)C(Nc1cccc(S(N)(=O)=O)c1)C(=O)c1ccc(OC)cc1 (configuration not stated) | – | inactive | inactive | 7.04 | inactive | 5.59 | inactive | – | – | – | – | – | – | – | – |
| CC(C)C(C(=O)Nc1ccc(S(N)(=O)=O)cc1)C(=O)c1ccccc1 (configuration not stated) | 7.45 | inactive | inactive | 7.52 | inactive | 6.74 | inactive | – | – | – | – | – | – | – | – |
| Cc1ccc(C(=O)CNc2cccc(S(N)(=O)=O)c2)cc1 | 6.68 | inactive | inactive | 7.19 | inactive | 6.53 | inactive | – | – | – | – | – | – | – | – |
| CCOC(=O)C(C(=O)Nc1ccc(S(N)(=O)=O)cc1)C(C)C (configuration not stated) | – | inactive | inactive | 7.49 | inactive | 7.24 | inactive | – | – | – | – | – | – | – | – |
| Cc1ccc(N2C(=O)C(Cc3ccc(Cl)cc3)=C(Nc3ccc(S(N)(=O)=O)cc3)C2=O)cc1 | 6.89 | – | – | 7.09 | – | < 5.00 | – | 4.94 | 10 | 4.78 | 10 | 4.96 | 4.66 | 4.58 | 4.81 |
| NS(=O)(=O)c1ccc(NC2CCN(c3cccc(C(F)(F)F)c3)C2=O)cc1 (configuration not stated) | 7.86 | inactive | inactive | 7.71 | inactive | 6.33 | inactive | – | – | – | – | – | – | – | – |
| CC(C)OC(=O)C(Nc1ccc(S(N)(=O)=O)cc1)C(=O)OC(C)C | 7.21 | inactive | inactive | 7.55 | inactive | 6.98 | inactive | – | – | – | – | – | – | – | – |
| Cc1ccc(C(=O)CNc2ccc(S(N)(=O)=O)cc2)cc1 | 7.17 | inactive | inactive | 7.82 | inactive | 7.27 | inactive | – | – | – | – | – | – | – | – |
| COCCOC(=O)C(Nc1ccc(S(N)(=O)=O)cc1)C(=O)OCCOC | 7.35 | inactive | inactive | 7.43 | inactive | 7.07 | inactive | – | – | – | – | – | – | – | – |
| CCOC(=O)C(Nc1ccc(S(N)(=O)=O)cc1)C(=O)c1ccc(OC)cc1 (configuration not stated) | 7.78 | inactive | inactive | 7.90 | inactive | 6.50 | inactive | – | – | – | – | – | – | – | – |
